Assay results published in patent US6455259B2, “Methods for detecting, selecting and cloning agents that degrade or promote degradation of DNA” (priority 1998, dated 2002).

Columns and labels:
[1] = system: E. coli strain MC1061; experiment: Complementation of T4 denA mutant phage by bleomycin: progeny phage production; type: cell-based
Procedure: (§1) In this example, a T4 denA mutant phage is complemented with an antibiotic known to cause single strand breaks in DNA, bleomycin. In this example, the production of any viable progeny phage above the background will be evidence of complementation. E. coli strain MC1061, growing at 32∞ C in Luria Broth plus 0.2% glucose was treated for 60 minutes with 10 μg/ml of bleomycin, which was then removed by centrifuging the cells and re-suspending them in an equal volume of the same media. Under these treatment conditions, cell viability is reduced to about 40-50% of that at the beginning of the treatment. The cells are then allowed to grow for various amounts of time at 32∞ C. in the absence of bleomycin, at which times HU is added to 200 mM.
Phage mutant in both the denA and denB genes is added five minutes later. Unadsorbed input phage are eliminated by treating the infected cultures with anti-T4 sera added 15-20 minutes after infection. This anti-T4 sera treatment to eliminate unadsorbed input phage allows detection of a lower level of progeny phage production. However, the anti-T4 sera must be removed or it will also inactivate progeny phage. This was done by centrifuging the infected cultures 50 minutes after infection, washing the pellets with one-tenth volume of media, centrifuging again, re-suspending the culture in one volume of media and immediately causing lysis of the productive cells by the addition of chloroform.
Progeny phage production was assayed by standard methods. A control infection was also done on cells given no bleomycin treatment.

[2] = system: E. coli strain MC1061; experiment: Cell viability after bleomycin treatment; type: cell-based; details: 10 μg/ml bleomycin, 60 minutes, 32 C, Luria Broth plus 0.2% glucose
Procedure: as §1

bleomycin
factor increase of progeny titre over control (no Bleomycin) ([1]; outgrowth 0 minutes): 1300 | factor increase of progeny titre over control (no Bleomycin) ([1]; outgrowth 20 minutes): 13000 | factor increase of progeny titre over control (no Bleomycin) ([1]; outgrowth 40 minutes): 24000 | factor increase of progeny titre over control (no Bleomycin) ([1]; outgrowth 60 minutes): 45000 | cell viability, relative to that at the beginning of the treatment [2]: 40-50%
